ChEMBL document CHEMBL1201862, “PubChem BioAssay data set” (2004)
The source made the active and inactive calls.

Tests used:
[1] = target: T1, Endoribonuclease toxin MazF (Escherichia coli K-12, UniProt P0AE70); assay: MazF toxin RNase activators, dose response, biochemical, fluorescence, single-stranded RNA substrate, uHTS hits (AID 588481); assay type: functional
T1 sequence (P0AE70 whole entry): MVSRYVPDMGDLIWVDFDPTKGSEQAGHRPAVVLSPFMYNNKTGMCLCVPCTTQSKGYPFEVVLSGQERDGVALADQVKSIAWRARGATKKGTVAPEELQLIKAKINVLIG

[2] = target: T2, Sentrin-specific protease 7 (Homo sapiens, UniProt Q9BQF6); assay type: functional;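 also: Luminescence-based dose-response confirmation of ultra-high-throughput screening hits, measuring inhibition of SENP7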
T2 sequence (Q9BQF6 whole entry): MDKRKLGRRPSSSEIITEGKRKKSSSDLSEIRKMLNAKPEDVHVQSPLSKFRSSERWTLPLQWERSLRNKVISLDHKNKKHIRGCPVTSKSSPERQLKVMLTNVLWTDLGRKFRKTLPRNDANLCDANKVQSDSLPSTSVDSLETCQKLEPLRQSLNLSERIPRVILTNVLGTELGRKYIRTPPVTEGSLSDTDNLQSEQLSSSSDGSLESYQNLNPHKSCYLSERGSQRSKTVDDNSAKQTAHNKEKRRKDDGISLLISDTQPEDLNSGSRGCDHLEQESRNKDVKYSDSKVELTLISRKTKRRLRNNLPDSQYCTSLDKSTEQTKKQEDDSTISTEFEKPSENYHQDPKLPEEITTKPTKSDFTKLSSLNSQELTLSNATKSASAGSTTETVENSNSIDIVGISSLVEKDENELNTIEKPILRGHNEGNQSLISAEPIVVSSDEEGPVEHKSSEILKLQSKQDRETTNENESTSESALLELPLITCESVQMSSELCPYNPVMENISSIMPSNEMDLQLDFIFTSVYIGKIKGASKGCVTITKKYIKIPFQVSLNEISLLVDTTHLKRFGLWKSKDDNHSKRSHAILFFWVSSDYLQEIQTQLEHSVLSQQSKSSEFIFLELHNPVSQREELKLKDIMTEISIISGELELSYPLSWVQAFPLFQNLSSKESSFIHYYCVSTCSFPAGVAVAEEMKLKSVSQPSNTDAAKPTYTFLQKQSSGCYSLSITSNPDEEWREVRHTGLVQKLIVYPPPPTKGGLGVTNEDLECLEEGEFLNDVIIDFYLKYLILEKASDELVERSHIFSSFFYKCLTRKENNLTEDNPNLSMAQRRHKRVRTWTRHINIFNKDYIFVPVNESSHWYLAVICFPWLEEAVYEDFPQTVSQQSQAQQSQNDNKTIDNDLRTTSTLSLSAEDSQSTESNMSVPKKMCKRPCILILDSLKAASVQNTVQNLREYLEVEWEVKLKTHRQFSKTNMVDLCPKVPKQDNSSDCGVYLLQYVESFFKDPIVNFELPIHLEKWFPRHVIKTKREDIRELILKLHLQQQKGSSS

[3] = target: T3, Zinc finger protein mex-5 (Caenorhabditis elegans, UniProt Q9XUB2); assay: MEX-5/TCR-2 RNA interaction inhibitors, dose response, biochemical, C. elegans, fluorescence polarization (AID 1960)
T3 sequence (Q9XUB2 whole entry): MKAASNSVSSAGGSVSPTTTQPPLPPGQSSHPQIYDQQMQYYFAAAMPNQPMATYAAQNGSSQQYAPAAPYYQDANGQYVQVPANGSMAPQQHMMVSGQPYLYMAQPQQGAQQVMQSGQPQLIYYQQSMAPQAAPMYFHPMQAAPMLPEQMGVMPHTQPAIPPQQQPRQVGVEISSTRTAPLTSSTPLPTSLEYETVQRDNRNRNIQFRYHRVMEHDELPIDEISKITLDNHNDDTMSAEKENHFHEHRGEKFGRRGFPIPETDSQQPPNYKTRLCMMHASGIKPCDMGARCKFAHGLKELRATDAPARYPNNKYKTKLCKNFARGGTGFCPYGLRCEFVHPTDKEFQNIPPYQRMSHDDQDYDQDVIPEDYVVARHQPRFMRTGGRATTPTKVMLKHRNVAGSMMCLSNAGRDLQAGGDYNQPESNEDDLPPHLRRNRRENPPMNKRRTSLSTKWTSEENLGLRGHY

[4] = target: T4, RNA-binding protein pos-1 (Caenorhabditis elegans, UniProt G5EF15); assay: inhibitors of POS-1/mex-3 RNA binding, dose response, biochemical, fluorescence polarization (AID 1964);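 also: purified POS-1 fused to maltose binding protein made in E. coli; potency of compounds blocking POS-1 binding to fluorescent RNA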
T4 sequence (G5EF15 whole entry): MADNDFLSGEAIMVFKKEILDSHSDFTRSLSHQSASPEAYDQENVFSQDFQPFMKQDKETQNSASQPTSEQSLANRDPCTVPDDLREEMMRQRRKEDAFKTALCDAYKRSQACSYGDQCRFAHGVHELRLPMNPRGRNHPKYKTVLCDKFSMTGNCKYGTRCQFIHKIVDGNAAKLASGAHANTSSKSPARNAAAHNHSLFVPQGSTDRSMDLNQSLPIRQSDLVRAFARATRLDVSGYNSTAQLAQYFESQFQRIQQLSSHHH

[5] = Luminescence-based counterscreen assay for KLF5 inhibitors: dose response cell-based high throughput screening assay to identify cytotoxic compounds using the IEC-6 intestinal epithelial cell line. [Related pubchem assays: 1700 (Primary screen.), 1834 (Confirmation screen.), 1858 (Summary AID.), 1905 (Counterscreen.)]; assay type: functional
[6] = A375 melanoma cell viability loss, dose response, counter-screen for MITF inhibitor project, CellTiter-Glo luminescence, dry powder, set 4 (AID 624364); assay type: functional, cell-based; conditions: A-375;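 also: A375 melanoma cells are MITF independent so this is a counter screen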
[7] = target: Serine/threonine-protein phosphatase PP1-alpha catalytic subunit (Homo sapiens, UniProt P62136); assay: PP1 phosphatase inhibitors, dose response, biochemical, fluorescence (AID 2394)
Chain of Serine/threonine-protein phosphatase PP1-alpha catalytic subunit (P62136 whole entry): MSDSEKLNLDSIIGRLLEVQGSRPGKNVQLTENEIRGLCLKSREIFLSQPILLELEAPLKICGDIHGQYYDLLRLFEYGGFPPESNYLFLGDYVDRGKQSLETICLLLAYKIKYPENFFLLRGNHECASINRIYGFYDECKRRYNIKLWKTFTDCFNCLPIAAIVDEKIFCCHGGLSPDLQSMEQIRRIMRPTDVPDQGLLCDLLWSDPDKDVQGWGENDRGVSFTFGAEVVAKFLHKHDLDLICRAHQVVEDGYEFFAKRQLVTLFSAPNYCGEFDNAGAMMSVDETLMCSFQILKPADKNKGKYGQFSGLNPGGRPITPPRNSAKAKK

SMILES	EC50 [1]	IC50 [2]	EC50 [3]	EC50 [4]	IC50 [5]	AC50 [6]	IC50 [7]
Oc1[nH]c2ccccc2c1N=Nc1ccc(F)cc1	> 99 µM (inactive)	1.51 µM (active)	> 300 µM (inconclusive)	> 300 µM (not active)			
O=C1C(Nc2ccccc2)=C(N2CCCCC2)C(=O)c2ccccc21					> 39.8 µM (not active)	37.4 µM (active)	> 67 µM (not active)
